Measured values taken from patent US6262017A, “Peptides for altering osteoblast adhesion” (Research Corporation Technologies, Inc., priority 1998, dated 2001).
Peptide text beside a SMILES is read from it.

Columns and labels:
[1] = tested on: BMD osteoblast-like cells; experiment: BMD osteoblast-like two-hour competitive adhesion on KRSRGGG-modified substrates; assay type: cell-based
Description: The effect of pre-incubation of BMD osteoblast-like and osteoclast-like cells was also examined with similar results (Tables 8 and 9).

[2] = tested on: osteoblasts; experiment: Osteoblast four-hour adhesion on peptide-modified glass substrates; assay type: cell-based
Source text: Using standard protocols, 3-aminopropyltriethoxysilane was used to immobilize exposed amine groups on the surfaces of glass substrates, and 1-ethyl-3-(3dimethylaminopropyl)carbodimide was used to bind peptides having the sequence KRSRGGG (SEQ ID NO:4) to the exposed amine groups on the glass substrates.
(§1) Peptides were immobilized on substrate surfaces (borosilicate glass, 18 mm round coverslips; Fisher) using silane coupling techniques adapted from published protocols [Weetall Applied Biochem. Biotech. 41, 158-188 (1993); Robinson et al. Biochim. Biophys. Acta 242, 659-661 (1971); and Baum et al. Biochim. Biophys. Acta 268, 411-414 (1972)], the disclosures of which are incorporated herein by reference. Briefly, 3-aminopropyltriethoxysilane (Sigma) was allowed to react with hydroxyl groups on the material surfaces to produce "aminophase" substrates.
(§2) In preparing for peptide immobilization, borosilicate glass coverslips (Fisher) were etched for one hour in a 3:1 (v/v) solution of 2 N sulfuric acid and 2 N nitric acid, degreased in acetone and ethanol, and rinsed with distilled water. The degreased and acid-etched substrates were placed in glass petri dishes which had been previously cleaned with a 3.5% solution of 30% hydrogen peroxide in 18 M sulfuric acid.
(§3) The substrates were dried at 160° C. for at least one hour, rinsed with dry acetone, and immersed in 2% 3-aminopropyltriethoxysilane in dry acetone, supplemented with 2% triethylamine under an argon atmosphere at […] for one hour. The substrates were rinsed (under an argon atmosphere) once with methylene chloride and twice with dry acetone, and cured under argon at 120° C. for three hours.
(§4) Peptides were covalently bound to immobilized exposed amine groups on the substrate surfaces during a twenty-minute incubation (under argon) with a 25:25:1 (v/v/v) solution of peptide (0.1 mM in dry N,N-dimethylformamide):1-ethyl-3-(3-dimethylaminopropyl)carbodiimide (2.5 mg/mL in dry N,N-dimethylformamide): n-ethylmorpholine. Unreacted amine groups were passivated by soaking peptide-modified substrates in acetic anhydride for 5 minutes; absorbed peptides were then removed by soaking for 5 minutes in 4 M urea, rinsing in distilled water, and soaking for 5 minutes in 1 M sodium chloride. Peptide-modified substrates were then thoroughly rinsed in distilled water prior to sterilization and use.
Substrates which had been etched in a 3:1 (v/v) solution of 2 N sulfuric acid: 2 N nitric acid, degreased in acetone and ethanol, and rinsed copiously with distilled water were used as references. Glass substrates were sterilized via overnight ultraviolet irradiation prior to use in experiments.

[3] = tested on: endothelial cells; experiment: Endothelial cell four-hour adhesion on peptide-modified glass; assay type: cell-based; conditions: for Cell density, Average: four-hour adhesion, peptide immobilized on glass
Source text: as §1, §2, §3, §4
(§5) In all experiments performed in the present invention, substrates which had been aminated but not peptide-grafted (i.e., aminophase substrates) were used as controls. Substrates which had been etched in a 3:1 (v/v) solution of 2 N sulfuric acid: 2 N nitric acid, degreased in acetone and ethanol, and rinsed copiously with distilled water were used as references. Glass substrates were sterilized via overnight ultraviolet irradiation prior to use in experiments.

[4] = tested on: bone marrow derived (BMD) osteoblast-like cells; experiment: Bone marrow-derived osteoblast-like cell four-hour adhesion on peptide-modified glass; assay type: cell-based; conditions: Table 2, peptide immobilized on glass
Source text: as §1, §2
The substrates were dried at 160° C. for at least one hour, rinsed with dry acetone, and immersed in 2% 3-aminopropyltriethoxysilane in dry acetone, supplemented with 2% triethylamine under an argon atmosphere at […] for one hour. The substrates were rinsed (under an argon atmosphere) once with methylene chloride and twice with dry acetone, and cured under argon at 120° C. for three hours. […]

[5] = tested on: osteoblasts; experiment: Osteoblast four-hour adhesion in the absence and presence of 0.2 U/ml heparinase; assay type: cell-based; conditions: for Cell density, Average: Table 10, four-hour adhesion
Source text: The heparinase used degrades heparan sulfate in a very selective manner.
as §1, §2, §3, §4, §5

[6] = tested on: osteoblasts; conditions: cultured for two weeks on peptide-modified Ti-6Al-4V
Source text: In the present study, medical grade Ti-6Al-4V stock (ASTM F-136; Osteonics) was sectioned into coupons using a low-speed saw equipped with a diamond wafering blade. The metal coupons were then polished to a 30 micron finish via sanding (using 600 grit paper on a sanding wheel), polishing to a 15 micron finish and then to a 9 micron finish (using diamond spray on a polishing wheel), and finally polishing to a 3 micron finish using aluminum oxide (Al2 O3) mixed with 30% hydrogen peroxide on a polishing wheel), according to standard techniques. Polished metal coupons were degreased with acetone and ethanol and rinsed copiously with distilled water before peptides were immobilized on the metal surfaces (via the aforementioned techniques).

[7] = tested on: BMD osteoclasts (bone-resorbing cells); experiment: Four-hour adhesion of Table 3 (title: BMD osteoblast-like cell; text: BMD osteoclasts) on peptide-modified glass; assay type: cell-based; conditions: for Cell density, Average: Table 3, four-hour adhesion, peptide immobilized on glass
Source text: as §1, §2, §3
as §4, with “use. […]” for “use.”

[8] = tested on: calvarial osteoblasts; experiment: Calvarial osteoblast two-hour competitive adhesion on KRSRGGG-modified substrates after pre-incubation with soluble peptide; assay type: cell-based
[9] = tested on: fibroblasts; experiment: Fibroblast adhesion on peptide-modified surfaces; assay type: cell-based; conditions: surfaces modified with peptide
[10] = Table 8, peptide concentration 0.5 mM
[11] = Table 8, peptide concentration 1.0 mM
[12] = Table 8, peptide concentration 1.5 mM
[13] = Table 8, peptide concentration 2.0 mM
[14] = Table 6, KRSR peptides of different lengths on glass
[15] = Table 4 (second, identical print)
[16] = Table 1, peptide immobilized on glass

N=C(N)NCCC[C@H](NC(=O)[C@H](CO)NC(=O)[C@H](CO)NC(=O)[C@@H](N)CCCCN)C(=O)NCC(=O)NCC(=O)NCC(=O)O [KSSRGGG, Lysine-Serine-Serine-Arginine-Glycine-Glycine-Glycine, reference compound] (H-KSSRGGG-OH)
Cell Adhesion expressed as % control [1, 10]: 109.52 % control
Cell Adhesion expressed as % control [1, 11]: 93.65 % control
Cell Adhesion expressed as % control [1, 12]: 101.59 % control
Cell Adhesion expressed as % control [1, 13]: 107.94 % control

KRSRQGGGGG [KRSR peptide of a different (longer) spacer length attached to the substrate]
Cell density, Average [2, 14]: 1708 Cells/cm^2

Histidine-Histidine-Tryptophan-Histidine (HHWH) [reference compound]
Cell density, Average ([2]; Table 5, KRSR vs HHWH on glass): 1080 Cells/cm^2

Arginine-Aspartic Acid-Glycine-Serine [RDGS, reference compound]
Cell density, Average ([3]; Table 4 (first print)): 1570 Cells/cm^2
Cell density, Average [3, 15]: 1570 Cells/cm^2
Cell density, Average [4]: 1712 Cells/cm^2
Cell density, Average ([5]; Heparinase 0.2 U/ml): 378 Cells/cm^2
Cell density, Average ([5]; Heparinase none): 1656 Cells/cm^2
Osteoblast morphology and cytoskeletal organization [6]: normal morphology and cytoskeletal organization
Cell density, Average [2, 16]: 1656 Cells/cm^2
Cell density, Average [7]: 2188 Cells/cm^2

H-Lys-Arg-Ser-Arg-OH (H-KRSR-OH)
Cell density, Average ([2]; Table 5, KRSR vs HHWH on glass): 1508 Cells/cm^2
Cell density, Average [2, 14]: 1508 Cells/cm^2

N=C(N)NCCC[C@H](NC(=O)[C@H](CO)NC(=O)[C@H](CCCNC(=N)N)NC(=O)[C@@H](N)CCCCN)C(=O)NCC(=O)NCC(=O)NCC(=O)O [KRSRGGG, H-Lys-Arg-Ser-Arg-(Gly)3 --OH] (H-KRSRGGG-OH)
Cell density, Average ([3]; Table 4 (first print)): 1600 Cells/cm^2
Cell density, Average [3, 15]: 1600 Cells/cm^2
Endothelial cell adhesion to peptide-modified surfaces (in words) ([3]; surfaces modified with peptide): do not adhere in significantly greater numbers
Effect of pre-incubation of osteoblasts with peptide on adhesion to KRSR-modified substrate (in words) [8]: significant decrease in adhesion
Cell density, Average [4]: 2332 Cells/cm^2
Cell density, Average ([5]; Heparinase 0.2 U/ml): 330 Cells/cm^2
Cell density, Average ([5]; Heparinase none): 2145 Cells/cm^2
Effect of heparinase treatment on osteoblast adhesion (in words) ([5]; heparinase treatment, peptide-modified substrate): significantly inhibited adhesion
Fibroblast adhesion to peptide-modified surfaces (in words) [9]: do not adhere in significantly greater numbers
Cell density, Average [2, 16]: 2145 Cells/cm^2
Cell density, Average [2, 14]: 1770 Cells/cm^2
Cell density, Average [7]: 2377 Cells/cm^2
BMD osteoclast adhesion versus other treated or untreated surfaces (in words) ([7]; peptide-modified surfaces): in greater numbers
Cell Adhesion expressed as % control [1, 10]: 81.63 % control
Cell Adhesion expressed as % control [1, 11]: 78.91 % control
Cell Adhesion expressed as % control [1, 12]: 66.67 % control
Cell Adhesion expressed as % control [1, 13]: 55.5 % control
